# From patent publication US11214803B2, “Modulators of YAP1 expression” (Ionis Pharmaceuticals, Inc., priority 2019, dated 2022)
# Strand notation (5' to 3'): a small letter for the sugar, then the base; units joined by * are phosphorothioate-linked, units joined directly phosphodiester-linked; [ ] holds rarer units or linkages, { } end groups; capitals alone tell only the bases. k = constrained ethyl (cEt); [5mC] = 5-methylcytosine; d = 2'-deoxy (DNA)
# Test system: Yap1 mRNA
# Assay: Antisense inhibition of human Yap1 in A-431 cells by cEt gapmers, single dose (Example 4, RTS4814)
# Assay type: cell-based
# Settings: Table 14; A-431 cells, 5,000 cells per well, free uptake, 2,000 nM, approximately 48 hours; RTS4814; normalized to RIBOGREEN; Yap1 mRNA relative to untreated control; * = targets amplicon region of primer probe set
# Outline: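 Values are % UTC: Yap1 mRNA by quantitative RT-PCR, normalized to RIBOGREEN total RNA. Cells were exposed ~48 h to 2,000 nM oligonucleotide without transfection. Oligonucleotides were 16-nucleoside gapmers with three cEt nucleosides per wing, ten-deoxy gap, P=S linkages throughout.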
row,Substance,YAP1 (% UTC)
1,1075232 (antisense kA*kT*kT*dT*dA*dT*d[5mC]*dA*dG*d[5mC]*d[5mC]*dA*dT*kT*kG*kT) [Compound 1075232],13
2,1075264 (antisense kG*kA*kA*dT*dA*dA*dT*dA*dT*dG*d[5mC]*dA*dG*kA*kA*k[5mC]) [Compound 1075264],53
3,1075296 (antisense kA*kT*kT*dA*dT*dA*dA*dG*d[5mC]*dT*dG*dT*dG*kT*kT*kG) [Compound 1075296],18
4,1075328 (k[5mC]*kT*k[5mC]*dG*d[5mC]*dA*dA*dA*dG*d[5mC]*d[5mC]*dT*d[5mC]*kT*kT*k[5mC]; antisense) [Compound 1075328],21
5,1075360 (kA*kG*kG*d[5mC]*dA*dA*d[5mC]*dA*dA*d[5mC]*dA*dT*d[5mC]*kT*kA*kA; antisense) [Compound 1075360],50
6,1075392 (kG*kA*k[5mC]*dG*dG*dG*dT*dG*dA*dA*d[5mC]*d[5mC]*dT*kG*kT*kT; antisense) [Compound 1075392],95

# Same assay, conditions: Table 15; A-431 cells, 5,000 cells per well, free uptake, 2,000 nM, approximately 48 hours; RTS4814; normalized to RIBOGREEN; Yap1 mRNA relative to untreated control; * = targets amplicon region of primer probe set
row,Substance,YAP1 (% UTC)
1,1075233 (antisense kG*kT*kA*dA*dT*dT*dT*dA*dT*d[5mC]*dA*dG*d[5mC]*k[5mC]*kA*kT) [Compound 1075233],2
2,1075265 (antisense kT*k[5mC]*kT*dG*dA*dA*dT*dA*dA*dT*dA*dT*dG*k[5mC]*kA*kG) [Compound 1075265],44
3,1075297 (kG*kT*kT*dA*dA*dT*dT*dA*dT*dA*dA*dG*d[5mC]*kT*kG*kT; antisense) [Compound 1075297],10
4,1075329 (kA*kG*kG*dG*dA*dA*dA*dA*d[5mC]*dT*dT*dT*dG*k[5mC]*kA*k[5mC]; antisense) [Compound 1075329],26
5,1075361 (kT*k[5mC]*kT*dT*dA*dA*dG*dG*dG*dA*dA*dT*dG*kT*kA*kT; antisense) [Compound 1075361],69
6,1075393 (k[5mC]*kT*kT*dA*dA*d[5mC]*d[5mC]*dT*dA*dT*dG*d[5mC]*d[5mC]*kA*kA*kA; antisense) [Compound 1075393],37

# Same assay, conditions: Table 16; A-431 cells, 5,000 cells per well, free uptake, 2,000 nM, approximately 48 hours; RTS4814; normalized to RIBOGREEN; Yap1 mRNA relative to untreated control cells
row,Substance,YAP1 (% UTC)
1,1075234 (antisense kG*kT*kA*dA*dA*dT*dA*d[5mC]*dT*d[5mC]*dT*dA*dG*kT*kT*k[5mC]) [Compound 1075234],22
2,1075266 (antisense kT*kA*kT*dT*dA*dG*dG*dA*d[5mC]*dA*dA*dA*dG*kT*kA*k[5mC]) [Compound 1075266],57
3,1075298 (kA*kT*k[5mC]*dT*d[5mC]*dG*dG*dA*dA*dA*dT*dT*dT*kA*kA*kA; antisense) [Compound 1075298],128
4,1075330 (kG*kA*kG*dG*dG*dA*dA*dA*dA*d[5mC]*dT*dT*dT*kG*k[5mC]*kA; antisense) [Compound 1075330],63
5,1075362 (k[5mC]*kA*kG*dG*dA*dA*dA*dA*dA*dT*d[5mC]*dT*dA*kG*kG*kT; antisense) [Compound 1075362],50
6,1075394 (kT*k[5mC]*kT*dT*dA*dA*d[5mC]*d[5mC]*dT*dA*dT*dG*d[5mC]*k[5mC]*kA*kA; antisense) [Compound 1075394],27

# Same assay, conditions: Table 17; A-431 cells, 5,000 cells per well, free uptake, 2,000 nM, approximately 48 hours; RTS4814; normalized to RIBOGREEN; Yap1 mRNA relative to untreated control cells
row,Substance,YAP1 (% UTC)
1,1075235 (antisense kA*kG*kT*dA*dA*dA*dT*dA*d[5mC]*dT*d[5mC]*dT*dA*kG*kT*kT) [Compound 1075235],38
2,1075267 (antisense k[5mC]*kT*kA*dT*dT*dT*dA*dG*dA*dA*dT*dA*dA*kG*kT*kG) [Compound 1075267],83
3,1075299 (kG*kA*kT*dA*dA*d[5mC]*d[5mC]*dA*dA*dT*dG*d[5mC]*dA*k[5mC]*k[5mC]*kA; antisense) [Compound 1075299],21
4,1075331 (kG*kA*kT*dA*dA*dA*d[5mC]*dA*d[5mC]*dT*dG*d[5mC]*dA*kG*kA*kG; antisense) [Compound 1075331],33
5,1075363 (kA*k[5mC]*kA*d[5mC]*dA*dA*dT*dA*dT*d[5mC]*dA*dA*dG*kT*k[5mC]*k[5mC]; antisense) [Compound 1075363],25
6,1075395 (kA*kT*kG*dA*dA*dT*dA*dA*dG*dT*dA*dT*dG*k[5mC]*k[5mC]*kA; antisense) [Compound 1075395],4

# Same assay, conditions: Yap1 mRNA remaining as percent of untreated control; 3-10-3 cEt gapmers; A-431 cells; Table 36
row,Substance,YAP1 (% UTC)
1,1075254 (kT*k[5mC]*k[5mC]*d[5mC]*dA*dA*dA*dA*dG*dT*d[5mC]*dA*dT*k[5mC]*kG*k[5mC]; antisense) [compound 1075254],28
2,1075286 (antisense kA*kT*kT*dA*d[5mC]*dG*dG*dA*d[5mC]*dA*dG*dA*dA*kG*kT*kG) [compound 1075286],48
3,1075318 (antisense kA*kT*k[5mC]*d[5mC]*dT*dA*dA*dA*dG*d[5mC]*d[5mC]*dA*d[5mC]*kT*kG*k[5mC]) [compound 1075318],72
4,1075350 (antisense kG*kA*kT*dT*dA*dA*dA*dG*d[5mC]*dT*d[5mC]*dA*dT*kT*kG*kA) [compound 1075350],62
5,1075382 (antisense kA*kT*kT*dA*dT*dT*dA*d[5mC]*d[5mC]*d[5mC]*dT*dA*d[5mC]*kT*k[5mC]*kA) [compound 1075382],33
6,1075414 (antisense k[5mC]*kA*kT*dA*d[5mC]*dT*dA*dA*dT*d[5mC]*d[5mC]*d[5mC]*dT*k[5mC]*kT*kT) [compound 1075414],41

# Same assay, conditions: Yap1 mRNA remaining as percent of untreated control; 3-10-3 cEt gapmers; A-431 cells; Table 37
row,Substance,YAP1 (% UTC)
1,1075223 (kG*kT*kT*dA*dA*dA*dA*dG*dT*dG*dA*dA*d[5mC]*k[5mC]*k[5mC]*kA; antisense) [compound 1075223],19
2,1075255 (kA*kA*kA*dT*dA*dT*d[5mC]*d[5mC]*dG*dT*dG*dT*d[5mC]*k[5mC]*kT*k[5mC]; antisense) [compound 1075255],16
3,1075287 (antisense kT*kA*kT*dT*dA*d[5mC]*dG*dG*dA*d[5mC]*dA*dG*dA*kA*kG*kT) [compound 1075287],58
4,1075319 (antisense kT*kA*kT*dA*dA*d[5mC]*dA*dA*dT*d[5mC]*dA*dT*d[5mC]*k[5mC]*kT*kA) [compound 1075319],59
5,1075351 (antisense kA*kG*kA*dT*dT*dA*dA*dA*dG*d[5mC]*dT*d[5mC]*dA*kT*kT*kG) [compound 1075351],38
6,1075383 (antisense kA*kA*kT*dT*dA*dT*dT*dA*d[5mC]*d[5mC]*d[5mC]*dT*dA*k[5mC]*kT*k[5mC]) [compound 1075383],45
7,1075415 (antisense k[5mC]*kA*kT*dT*dA*dA*dA*dT*dG*dA*d[5mC]*dA*dG*k[5mC]*k[5mC]*kT) [compound 1075415],52
